Data on eight molecules can be found in ChEMBL document CHEMBL1134755, “B-ring substituted 5,7-dihydroxyflavonols with high-affinity binding to P-glycoprotein responsible for cell multidrug resistance” (Bioorg Med Chem Lett, 2001).

Series [1] addresses T1, ATP-dependent translocase ABCB1 (Mus musculus, UniProt P21447). As to the kind of experiment: Percent of maximal quenching fluorescence for binding analysis to nucleotide-binding domain (NBD2) of P-Glycoprotein was determined.
In series [2] the target is T1, ATP-dependent translocase ABCB1. As to the kind of experiment: Binding affinity to nucleotide-binding domain (NBD2) of P-Glycoprotein.

T1 sequence (P21447 whole entry, the tested form may be a part): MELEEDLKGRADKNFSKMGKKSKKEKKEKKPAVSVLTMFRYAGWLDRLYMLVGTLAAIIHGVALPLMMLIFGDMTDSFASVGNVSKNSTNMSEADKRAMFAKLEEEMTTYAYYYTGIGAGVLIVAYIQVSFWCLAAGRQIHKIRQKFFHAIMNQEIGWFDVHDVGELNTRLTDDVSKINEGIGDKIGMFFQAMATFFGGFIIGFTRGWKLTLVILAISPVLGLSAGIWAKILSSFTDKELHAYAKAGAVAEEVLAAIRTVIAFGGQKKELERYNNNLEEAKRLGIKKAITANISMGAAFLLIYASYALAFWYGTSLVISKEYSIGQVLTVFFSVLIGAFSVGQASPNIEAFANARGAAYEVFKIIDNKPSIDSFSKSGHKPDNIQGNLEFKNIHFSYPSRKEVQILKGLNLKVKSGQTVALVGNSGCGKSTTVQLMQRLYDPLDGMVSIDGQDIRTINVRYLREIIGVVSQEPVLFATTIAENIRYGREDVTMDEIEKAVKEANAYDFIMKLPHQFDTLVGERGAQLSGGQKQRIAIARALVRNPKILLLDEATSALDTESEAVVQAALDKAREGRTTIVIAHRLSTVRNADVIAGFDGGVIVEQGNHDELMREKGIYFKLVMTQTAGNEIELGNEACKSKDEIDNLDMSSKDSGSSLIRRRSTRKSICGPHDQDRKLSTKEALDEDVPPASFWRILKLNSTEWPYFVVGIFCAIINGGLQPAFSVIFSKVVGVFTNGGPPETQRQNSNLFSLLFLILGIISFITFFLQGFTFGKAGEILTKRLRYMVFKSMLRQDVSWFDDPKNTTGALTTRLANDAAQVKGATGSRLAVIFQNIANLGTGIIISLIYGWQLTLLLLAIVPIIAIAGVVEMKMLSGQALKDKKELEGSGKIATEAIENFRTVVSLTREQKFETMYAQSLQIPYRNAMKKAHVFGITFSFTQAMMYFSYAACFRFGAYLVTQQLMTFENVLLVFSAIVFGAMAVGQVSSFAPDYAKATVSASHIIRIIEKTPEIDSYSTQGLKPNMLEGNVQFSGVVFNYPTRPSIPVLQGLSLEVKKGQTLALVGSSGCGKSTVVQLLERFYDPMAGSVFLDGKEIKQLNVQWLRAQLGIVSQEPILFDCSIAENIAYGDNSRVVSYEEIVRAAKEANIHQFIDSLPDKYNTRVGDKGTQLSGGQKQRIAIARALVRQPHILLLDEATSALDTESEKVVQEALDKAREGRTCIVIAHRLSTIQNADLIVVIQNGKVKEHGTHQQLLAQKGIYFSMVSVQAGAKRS

Take `O=c1c(O)c(-c2ccc(C(c3ccccc3)c3ccccc3)cc2)oc2cc(O)cc(O)c12`: the “Delta Fmax” value in series [1] is recorded as 84.6%. Besides, in series [2], binding was characterised by a dissociation constant (Kd) of 2 µM.

Take `CCCCCCCCc1ccc(-c2oc3cc(O)cc(O)c3c(=O)c2O)cc1`: the “Delta Fmax” value in series [1] amounted to 62.1%. Besides, the Kd in series [2] turned out to be 0.057 µM.

Turning to `O=c1c(O)c(-c2ccc(Cl)cc2Cl)oc2cc(O)cc(O)c12`, the “Delta Fmax” value in series [1] was 85.3%. In series [2], this molecule gave a Kd of 4 µM.

Take `O=c1c(O)c(-c2ccc(F)cc2)oc2cc(O)cc(O)c12`: the “Delta Fmax” value in series [1] is reported as 91.6%. In series [2], this molecule returned a Kd of 6.8 µM.

On to `O=c1c(O)c(-c2ccc(I)cc2)oc2cc(O)cc(O)c12`, for which the “Delta Fmax” value in series [1] stood at 95.5%. Binding in series [2] was characterised by a dissociation constant (Kd) of 1.06 µM.

On to `O=c1c(O)c(-c2ccccc2)oc2cc(O)cc(O)c12` [GALANGIN], for which, in series [1], the “Delta Fmax” value is 95%. This molecule also returned a Kd in series [2] of 5.9 µM.

`COc1ccc(-c2oc3cc(O)cc(O)c3c(=O)c2O)cc1` [KAEMPFERIDE]: the “Delta Fmax” value in series [1] was 96.7%. This molecule also registered a Kd in series [2] of 5 µM.

Consider `O=c1c(O)c(-c2ccc(O)cc2)oc2cc(O)cc(O)c12` [KAEMPFEROL], for which the “Delta Fmax” value in series [1] was determined as 97.6%. Also, the Kd in series [2] is 6.7 µM.
